Tests used:
[1] = biological target: T1, CDK2 (Homo sapiens, UniProt P24941); assay: CDK protein degradation activity (Western blotting), CDK2; format: cell-based; details: MDA-MB-231 cells, 16 hours, Western blot
T1 construct: endogenous in cells; host or cells: MDA-MB-231
Outline: (§1)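 CDK2 and CDK9 protein levels measured by Western blot with densitometry, using tubulin as loading reference. Cells were MDA-MB-231, exposed for 16 h to 100 nM, 1 μM or 10 μM compound or to DMSO.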

[2] = biological target: T2, CDK9 (Homo sapiens, UniProt P50750); assay: CDK protein degradation activity (Western blotting), CDK9; format: cell-based; details: MDA-MB-231 cells, 16 hours, Western blot
T2 construct: endogenous in cells; host or cells: MDA-MB-231
Outline: as §1

T2 sequence (P50750 whole entry): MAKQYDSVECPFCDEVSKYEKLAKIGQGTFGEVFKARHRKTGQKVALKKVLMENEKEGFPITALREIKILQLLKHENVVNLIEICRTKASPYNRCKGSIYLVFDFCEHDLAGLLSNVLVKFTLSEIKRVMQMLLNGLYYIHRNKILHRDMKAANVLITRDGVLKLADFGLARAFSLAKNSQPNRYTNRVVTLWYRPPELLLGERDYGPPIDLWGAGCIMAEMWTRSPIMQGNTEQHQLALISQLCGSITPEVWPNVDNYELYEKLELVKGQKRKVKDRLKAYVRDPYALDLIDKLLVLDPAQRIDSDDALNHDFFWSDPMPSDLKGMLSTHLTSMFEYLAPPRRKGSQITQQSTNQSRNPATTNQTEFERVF

Structure (SMILES)	Enzyme degradation CDK2 (% remaining) @ 0.1 μM [1]	Enzyme degradation CDK2 (% remaining) @ 1 μM [1]	Enzyme degradation CDK2 (% remaining) @ 10 μM [1]	Enzyme degradation CDK9 (% remaining) @ 0.1 μM [2]	Enzyme degradation CDK9 (% remaining) @ 1 μM [2]	Enzyme degradation CDK9 (% remaining) @ 10 μM [2]
O=C1CC[C@H](n2nnc3ccc(N4CCC(CN5CCC(CCNc6ncnc7c6ncn7C6CC(NC(=O)Cc7ccccc7)C6)CC5)CC4)cc3c2=O)C(=O)N1 (stereo partly drawn) [Compound 410, N-((1s,3s)-3-(6-((2-(1-((1-(3-(2,6-dioxopiperidin-3-yl)-4-oxo-3,4-dihydrobenzo[d][1,2,3]triazin-6-yl)piperidin-4-yl)methyl)piperidin-4-yl)ethyl)amino)-9H-purin-9-yl)cyclobutyl)-2-phenylacetamide]	30%	20%	20%	30%	20%	20%
O=C1CC[C@H](N2C(=O)c3ccc(N4CC(C(=O)N5CCC(CN6CCC(CCNc7ncnc8c7ncn8[C@H]7C[C@@H](NC(=O)Cc8ccccc8)C7)CC6)CC5)C4)cc3C2=O)C(=O)N1 [Compound 411, N-((1s,3s)-3-(6-((2-(1-((1-(1-(2-(2,6-dioxopiperidin-3-yl)-1,3-dioxoisoindolin-5-yl)azetidin-3-carbonyl)piperidin-4-yl)methyl)piperidin-4-yl)ethyl)amino)-9H-purin-9-yl)cyclobutyl)-2-phenylacetamide]	40/40/40%	40/40/40%	40/40/40%	10/10/10%	10/10/10%	10/10/10%
O=C1CC[C@H](N2C(=O)c3ccc(N4CC(C(=O)N5CCC(CCN6CCN(c7ccc(Nc8ncnc9c8ncn9C8CC(NC(=O)c9c(Cl)cccc9Cl)C8)cc7)CC6)CC5)C4)cc3C2=O)C(=O)N1 (stereo partly drawn) [Compound 412, 2,6-dichloro-N-((1s,3s)-3-(6-((4-(4-(2-(1-(1-(2-(2,6-dioxopiperidin-3-yl)-1,3-dioxoisoindolin-5-yl)azetidin-3-carbonyl)piperidin-4-yl)ethyl)piperazin-1-yl)phenyl)amino)-9H-purin-9-yl)cyclobutyl)benzamide]	30/30/30%	30/30/30%	30/30/30%	10/10/10%	10/10/10%	10/10/10%
N#Cc1cccc(C(=O)N[C@H]2C[C@@H](n3cnc4c(Nc5ccc(N6CCN(CC7CCN(c8cc9c(cc8F)C(=O)N(C8CCC(=O)NC8=O)C9=O)CC7)CC6)cc5)ncnc43)C2)n1 (stereo partly drawn) [Compound 414, 6-cyano-N-((1s,3s)-3-(6-((4-(4-((1-(2-(2,6-dioxopiperidin-3-yl)-6-fluoro-1,3-dioxoisoindolin-5-yl)piperidin-4-yl)methyl)piperazin-1-yl)phenyl)amino)-9H-purin-9-yl)cyclobutyl)picolinamide]	20/20/20%	20/20/20%	20/20/20%	10/10/10%	10/10/10%	10/10/10%
O=C1CC[C@H](N2C(=O)c3cc(F)c(N4CCC(CN5CCN(c6ccc(Nc7ncnc8c7ncn8C7CC(NC(=O)c8cccc(C(F)(F)F)n8)C7)cc6)CC5)CC4)cc3C2=O)C(=O)N1 (stereo partly drawn) [Compound 415, N-((1s,3s)-3-(6-((4-(4-((1-(2-(2,6-dioxopiperidin-3-yl)-6-fluoro-1,3-dioxoisoindolin-5-yl)piperidin-4-yl)methyl)piperazin-1-yl)phenyl)amino)-9H-purin-9-yl)cyclobutyl)-6-(trifluoromethyl)picolinamide]	20/20/20%	20/20/20%	20/20/20%	10/10/10%	10/10/10%	10/10/10%
O=C1CC[C@H](N2C(=O)c3cc(F)c(N4CCC(CN5CCN(c6ccc(Nc7ncnc8c7ncn8[C@H]7C[C@@H](NC(=O)c8cccc(Cl)n8)C7)cc6)CC5)CC4)cc3C2=O)C(=O)N1 [Compound 416, 6-chloro-N-((1s,3s)-3-(6-((4-(4-((1-(2-(2,6-dioxopiperidin-3-yl)-6-fluoro-1,3-dioxoisoindolin-5-yl)piperidin-4-yl)methyl)piperazin-1-yl)phenyl)amino)-9H-purin-9-yl)cyclobutyl)picolinamide]	20%	10%	10%	10/10/10%	10/10/10%	10/10/10%

The next lines start with the values.

Enzyme degradation CDK2 (% remaining) @ 0.1 μM [1]	Enzyme degradation CDK2 (% remaining) @ 1 μM [1]	Enzyme degradation CDK2 (% remaining) @ 10 μM [1]	Enzyme degradation CDK9 (% remaining) @ 0.1 μM [2]	Enzyme degradation CDK9 (% remaining) @ 1 μM [2]	Enzyme degradation CDK9 (% remaining) @ 10 μM [2]	Structure (SMILES)
30%	20%	20%	10/10/10%	10/10/10%	10/10/10%	O=C1CC[C@H](N2C(=O)c3ccc(N4CCC(C(=O)N5CCC(CCN6CCN(c7ccc(Nc8ncnc9c8ncn9C8CC(NC(=O)c9c(Cl)cccc9Cl)C8)cc7)CC6)CC5)CC4)cc3C2=O)C(=O)N1 (stereo partly drawn) [Compound 413, 2,6-dichloro-N-((1s,3s)-3-(6-((4-(4-(2-(1-(1-(2-(2,6-dioxopiperidin-3-yl)-1,3-dioxoisoindolin-5-yl)piperidin-4-carbonyl)piperidin-4-yl)ethyl)piperazin-1-yl)phenyl)amino)-9H-purin-9-yl)cyclobutyl)benzamide]
10%	0%	0%	10/10/10%	10/10/10%	10/10/10%	O=C1CC[C@H](n2nnc3ccc(N4CCC(CN5CCN(c6ccc(Nc7ncnc8c7ncn8C7CC(NC(=O)c8cccc(Cl)n8)C7)cc6)CC5)CC4)cc3c2=O)C(=O)N1 (stereo partly drawn) [Compound 417, 6-chloro-N-((1s,3s)-3-(6-((4-(4-((1-(3-(2,6-dioxopiperidin-3-yl)-4-oxo-3,4-dihydrobenzo[d][1,2,3]triazin-6-yl)piperidin-4-yl)methyl)piperazin-1-yl)phenyl)amino)-9H-purin-9-yl)cyclobutyl)picolinamide]
10/10/10%	10/10/10%	10/10/10%	0/0/0%	0/0/0%	0/0/0%	O=C1CC[C@H](N2C(=O)c3cccc(NCC(=O)N4CCC(CN5CCN(c6ccc(Nc7ncnc8c7ncn8C7CC(NC(=O)c8cccc(Cl)n8)C7)cc6)CC5)CC4)c3C2=O)C(=O)N1 (stereo partly drawn) [Compound 419, 6-chloro-N-((1s,3s)-3-(6-((4-(4-((1-((2-(2,6-dioxopiperidin-3-yl)-1,3-dioxoisoindolin-4-yl)glycyl)piperidin-4-yl)methyl)piperazin-1-yl)phenyl)amino)-9H-purin-9-yl)cyclobutyl)picolinamide]
